Data as given in the NIST ThermoML archive (doi:10.1021/je900131q).
“And” between values parts separate entries of the source, which are not always exact repeats. Equal entries are not always repeated.

Conditions: Fluid (supercritical or subcritical phases); for mass density: Buoyancy - hydrostatic balance with magnetic suspension - one sinker; for viscosity: Vibrating wire viscometer

[He] [helium]
Conditions | mass density | viscosity [mPa·s]
293.13 K, 27527 kPa | 39.805 kg/m3 | 0.01975
293.14 K, 2446 kPa | 3.967 kg/m3 | 0.01958
293.14 K, 16374 kPa | 24.912 kg/m3 | 0.01958
293.14 K, 20744 kPa | 30.969 kg/m3 | 0.01962
293.14 K, 27529 kPa | 39.804 kg/m3 | 0.01975
293.15 K, 122.25 kPa | 0.19885 kg/m3 | 0.01954
293.15 K, 245.73 kPa | 0.40368 kg/m3 | 0.01958
293.15 K, 366.51 kPa | 0.59858 kg/m3 | 0.01959
293.15 K, 366.53 kPa | 0.60087 kg/m3 | 0.01959
293.15 K, 482.99 kPa | 0.79042 kg/m3 | 0.01959
293.15 K, 483 kPa | 0.79119 kg/m3 | 0.01959
293.15 K, 1219.9 kPa | 1.9866 kg/m3 | 0.01959
293.15 K, 1827.5 kPa | 2.9695 kg/m3 | 0.01958
293.15 K, 1827.6 kPa | 2.9711 kg/m3 | 0.01958
293.15 K, 2466.2 kPa | 3.9699 kg/m3 | 0.01958
293.15 K, 3714.2 kPa | 5.9819 kg/m3 | 0.01957
293.15 K, 3714.3 kPa | 5.9857 kg/m3 | 0.01956
293.15 K, 4978.6 kPa | 7.974 kg/m3 | 0.01956
293.15 K, 4978.7 kPa | 7.9747 kg/m3 | 0.01956
293.15 K, 4995.9 kPa | 7.9672 kg/m3 | 0.01957
293.15 K, 7564.1 kPa | 11.972 kg/m3 | 0.01955
293.15 K, 7564.2 kPa | 11.972 kg/m3 | 0.01955
293.15 K, 8842.9 kPa | 13.917 kg/m3 and 13.915 kg/m3 | 0.01955
293.15 K, 10227 kPa | 15.922 kg/m3 | 0.01957
293.15 K, 12231 kPa | 18.954 kg/m3 | 0.01956
293.15 K, 14295 kPa | 21.949 kg/m3 | 0.01957
293.15 K, 14296 kPa | 21.953 kg/m3 | 0.01957
293.15 K, 14320 kPa | 21.908 kg/m3 | 0.01959
293.15 K, 16374 kPa | 24.913 kg/m3 | 0.01958
293.15 K, 18460 kPa | 27.833 kg/m3 and 27.831 kg/m3 | 0.0196
293.15 K, 20744 kPa | 30.973 kg/m3 | 0.01963
293.15 K, 22880 kPa | 33.856 kg/m3 | 0.01966
293.15 K, 22883 kPa | 33.861 kg/m3 | 0.01966
293.15 K, 22973 kPa | 33.811 kg/m3 | 0.01968
293.15 K, 25224 kPa | 36.797 kg/m3 | 0.01972
293.15 K, 25329 kPa | 37.097 kg/m3 and 37.099 kg/m3 | 0.01969
293.16 K, 245.73 kPa | 0.40445 kg/m3 | 0.01958
293.16 K, 613.17 kPa | 1.0037 kg/m3 | 0.01959
293.16 K, 613.18 kPa | 1.0029 kg/m3 | 0.01959
293.16 K, 2447.5 kPa | 3.9693 kg/m3 and 3.9647 kg/m3 | 0.01958
293.16 K, 3742.3 kPa | 5.9974 kg/m3 | 0.01958
293.16 K, 4996.2 kPa | 7.965 kg/m3 | 0.01957
293.16 K, 6263.9 kPa | 9.9737 kg/m3 and 9.9745 kg/m3 | 0.01956
293.16 K, 6273.2 kPa | 9.9551 kg/m3 | 0.01957
293.16 K, 7587 kPa | 11.953 kg/m3 | 0.01957
293.16 K, 14320 kPa | 21.907 kg/m3 | 0.01959
293.16 K, 22974 kPa | 33.812 kg/m3 | 0.01968
293.16 K, 25225 kPa | 36.795 kg/m3 | 0.01971
293.16 K, 30149 kPa | 43.152 kg/m3 | 0.0198
293.16 K, 30150 kPa | 43.152 kg/m3 | 0.0198
293.17 K, 3742.6 kPa | 5.9981 kg/m3 | 0.01958
293.17 K, 6273.4 kPa | 9.9566 kg/m3 | 0.01957
293.17 K, 6273.7 kPa | 9.9551 kg/m3 | 0.01957
293.17 K, 7587.3 kPa | 11.953 kg/m3 | 0.01957
293.17 K, 8869.8 kPa | 13.892 kg/m3 | 0.01957
293.17 K, 10198 kPa | 15.951 kg/m3 and 15.945 kg/m3 | 0.01955
293.17 K, 12237 kPa | 18.892 kg/m3 | 0.01958
293.17 K, 18562 kPa | 27.894 kg/m3 | 0.01962
293.18 K, 2466.6 kPa | 3.9663 kg/m3 | 0.01959
293.18 K, 8870.2 kPa | 13.894 kg/m3 | 0.01957
293.18 K, 10228 kPa | 15.928 kg/m3 | 0.01958
293.18 K, 12237 kPa | 18.892 kg/m3 | 0.01958
293.18 K, 16436 kPa | 24.919 kg/m3 | 0.01961
293.18 K, 18563 kPa | 27.897 kg/m3 | 0.01964
293.18 K, 22975 kPa | 33.81 kg/m3 | 0.01968
293.19 K, 16436 kPa | 24.919 kg/m3 | 0.01961
293.19 K, 18564 kPa | 27.893 kg/m3 | 0.01963
293.2 K, 20756 kPa | 30.909 kg/m3 | 0.01965
293.2 K, 20757 kPa | 30.907 kg/m3 | 0.01966
293.21 K, 30174 kPa | 43.24 kg/m3 | 0.0198
293.21 K, 30175 kPa | 43.241 kg/m3 and 43.243 kg/m3 | 0.01979
293.22 K, 30175 kPa | 43.244 kg/m3 | 0.0198
293.24 K, 1220.6 kPa | 1.9766 kg/m3 | 0.01959
293.25 K, 1220.7 kPa | 1.978 kg/m3 | 0.0196
293.25 K, 1827.1 kPa | 2.949 kg/m3 | 0.01959
293.26 K, 613.3 kPa | 0.99551 kg/m3 | 0.0196
293.26 K, 1827.3 kPa | 2.9512 kg/m3 | 0.01959
293.27 K, 489.97 kPa | 0.79365 kg/m3 | 0.0196
293.27 K, 490.02 kPa | 0.79727 kg/m3 | 0.0196
293.27 K, 613.45 kPa | 0.99623 kg/m3 | 0.0196
293.28 K, 121.3 kPa | 0.19968 kg/m3 | 0.01954
293.28 K, 121.33 kPa | 0.19895 kg/m3 | 0.01955
293.28 K, 244.14 kPa | 0.39719 kg/m3 | 0.01958
293.28 K, 244.19 kPa | 0.39791 kg/m3 | 0.01958
293.28 K, 366.66 kPa | 0.59687 kg/m3 | 0.01959
293.28 K, 366.7 kPa | 0.59542 kg/m3 | 0.01959
